In ChEMBL document CHEMBL1155508, “Discovery of TRPV1 antagonist ABT-116” (Bioorg Med Chem Lett, 2010):
≈ marks a conversion by molar mass, not a printed value. One block for each compound: values may come before it.

Assays:
Rattus norvegicus [1] = assay: Antiinflammatory activity against complete Freund's adjuvant-induced thermal hyperalgesia in po dosed rat; assay type: functional
[2] = biological target: T1, Transient receptor potential cation channel subfamily V member 1 (Homo sapiens, UniProt Q8NER1); assay: Antagonist activity at human TRPV1; assay type: functional
T1 sequence (Q8NER1 whole entry): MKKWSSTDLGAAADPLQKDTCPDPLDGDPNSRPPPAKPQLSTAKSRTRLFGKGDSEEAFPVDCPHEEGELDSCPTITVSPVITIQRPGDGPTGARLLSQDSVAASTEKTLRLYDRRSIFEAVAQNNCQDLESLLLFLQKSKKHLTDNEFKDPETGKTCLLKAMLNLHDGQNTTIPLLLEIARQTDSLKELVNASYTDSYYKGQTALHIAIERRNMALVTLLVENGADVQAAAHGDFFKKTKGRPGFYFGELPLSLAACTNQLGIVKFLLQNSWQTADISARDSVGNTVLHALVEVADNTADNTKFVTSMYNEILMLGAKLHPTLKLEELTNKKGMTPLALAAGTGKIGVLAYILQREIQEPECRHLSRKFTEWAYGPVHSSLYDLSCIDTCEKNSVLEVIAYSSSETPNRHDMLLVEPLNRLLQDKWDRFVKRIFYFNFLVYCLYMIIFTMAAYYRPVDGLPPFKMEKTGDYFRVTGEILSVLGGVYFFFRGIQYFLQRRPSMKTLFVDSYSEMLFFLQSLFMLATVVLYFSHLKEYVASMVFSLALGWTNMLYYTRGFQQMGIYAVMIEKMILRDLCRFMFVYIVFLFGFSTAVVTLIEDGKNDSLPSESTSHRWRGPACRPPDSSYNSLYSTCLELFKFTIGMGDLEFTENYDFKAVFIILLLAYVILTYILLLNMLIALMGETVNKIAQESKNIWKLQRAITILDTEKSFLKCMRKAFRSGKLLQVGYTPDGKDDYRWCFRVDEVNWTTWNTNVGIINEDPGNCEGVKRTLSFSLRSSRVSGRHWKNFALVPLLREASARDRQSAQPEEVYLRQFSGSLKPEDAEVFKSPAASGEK

[3] = Ratio of drug level in brain to plasma in rat at 10 µmol/kg, po; conditions: read-out: BPR
[4] = biological target: T1, Transient receptor potential cation channel subfamily V member 1; assay: Antagonist activity at human TRPV1 expressed in HEK293 cells assessed as inhibition of capsaicin-induced effect by capsaicin
Rattus norvegicus [5] = assay: Antiinflammatory activity against carrageenan-induced thermal hyperalgesia in po dosed rat; assay type: functional
[6] = Half life in rat at 10 µmol/kg, po; conditions: in vivo
Rattus norvegicus [7] = assay: Toxicity in rat assessed as increase of body temperature at 100 umol/kg, po after 1 hr; assay type: organism-based; conditions: in vivo
CYP3A4 = CYP3A4 (Homo sapiens, UniProt P08684); assay: Inhibition of CYP3A4 assessed as midazolam oxidation at 10 uM; assay type: ADME; conditions: probe midazolam
Sequence of CYP3A4 (P08684 whole entry): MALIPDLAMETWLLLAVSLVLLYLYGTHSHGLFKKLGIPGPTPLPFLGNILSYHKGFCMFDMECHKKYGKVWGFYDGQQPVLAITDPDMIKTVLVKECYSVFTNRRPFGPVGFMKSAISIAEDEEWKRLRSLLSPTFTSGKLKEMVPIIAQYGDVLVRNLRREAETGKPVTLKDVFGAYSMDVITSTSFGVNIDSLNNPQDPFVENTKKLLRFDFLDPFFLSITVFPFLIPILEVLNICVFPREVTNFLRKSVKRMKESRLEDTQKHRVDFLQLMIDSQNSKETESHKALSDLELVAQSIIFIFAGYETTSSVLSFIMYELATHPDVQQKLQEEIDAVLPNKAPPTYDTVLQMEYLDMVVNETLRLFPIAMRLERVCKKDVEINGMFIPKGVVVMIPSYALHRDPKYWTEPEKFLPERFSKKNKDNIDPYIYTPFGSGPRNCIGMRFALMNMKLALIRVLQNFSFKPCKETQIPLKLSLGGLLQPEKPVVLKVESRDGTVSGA

Rattus norvegicus [8] = assay: Plasma clearance in rat at 10 µmol/kg, po; conditions: in vivo
[9] = biological target: Transient receptor potential cation channel subfamily V member 1 (Rattus norvegicus, UniProt O35433); assay: Antagonist activity at rat TRPV1 assessed as inhibition of capsaicin-induced effect; assay type: functional
Sequence of Transient receptor potential cation channel subfamily V member 1 (Rattus norvegicus, UniProt O35433) (O35433 whole entry): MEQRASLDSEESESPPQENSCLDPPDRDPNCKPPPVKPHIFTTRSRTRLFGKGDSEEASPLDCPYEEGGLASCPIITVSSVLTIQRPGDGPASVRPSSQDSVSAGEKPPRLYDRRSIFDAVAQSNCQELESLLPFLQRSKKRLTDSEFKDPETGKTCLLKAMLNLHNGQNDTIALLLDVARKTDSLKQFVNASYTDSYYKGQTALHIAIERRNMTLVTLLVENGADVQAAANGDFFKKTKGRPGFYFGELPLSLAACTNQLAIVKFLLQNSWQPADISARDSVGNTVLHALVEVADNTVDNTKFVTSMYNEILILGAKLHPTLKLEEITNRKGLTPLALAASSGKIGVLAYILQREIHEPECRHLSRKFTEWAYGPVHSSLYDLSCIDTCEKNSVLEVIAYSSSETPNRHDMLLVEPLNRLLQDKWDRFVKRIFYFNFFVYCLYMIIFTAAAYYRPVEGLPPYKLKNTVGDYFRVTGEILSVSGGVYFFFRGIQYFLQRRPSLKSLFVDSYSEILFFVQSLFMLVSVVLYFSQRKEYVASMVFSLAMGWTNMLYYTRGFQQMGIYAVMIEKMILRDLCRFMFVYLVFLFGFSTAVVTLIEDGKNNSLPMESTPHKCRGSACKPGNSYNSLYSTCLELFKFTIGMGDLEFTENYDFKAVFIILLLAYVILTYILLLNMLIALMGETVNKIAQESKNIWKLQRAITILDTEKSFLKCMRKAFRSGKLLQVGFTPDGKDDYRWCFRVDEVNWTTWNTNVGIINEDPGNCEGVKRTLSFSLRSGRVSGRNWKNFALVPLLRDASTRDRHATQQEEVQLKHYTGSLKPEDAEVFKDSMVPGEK

[10] = biological target: T1, Transient receptor potential cation channel subfamily V member 1; assay: Antagonist activity at human TRPV1 expressed in HEK293 cells assessed as inhibition of N-arachidonoyl-dopamine-induced effect; assay type: functional, cell-based
[11] = Cmax in rat at 10 µmol/kg, po; conditions: in vivo
[12] = Aqueous solubility of the compound; assay type: physicochemical
[13] = Oral bioavailability in rat at 10 µmol/kg; conditions: in vivo
Rattus norvegicus [14] = assay: Volume of distribution at steady state in rat at 10 µmol/kg, po; conditions: in vivo
Rattus norvegicus [15] = assay: Antiinflammatory activity in rat osteoarthritis model assessed as reduction of pain in rat at 10 umol/kg, po bid measured after 12 days; assay type: functional; design: scale not given: the % may be the effect or the level left
[16] = Solubility in lipid; assay type: physicochemical
Rattus norvegicus [17] = assay: Antiinflammatory activity in rat post operative pain model assessed as reduction in pain in rat at 100 umol/kg, po single dose; design: scale not given: the % may be the effect or the level left
Rattus norvegicus [18] = assay: Antiinflammatory activity in rat osteoarthritis model assessed as reduction of pain in rat at 10 umol/kg, po single dose; design: scale not given: the % may be the effect or the level left
Rattus norvegicus [19] = assay: Antiinflammatory activity in rat osteoarthritis model assessed as inhibition of thermal hyperalgesia in po dosed rat; assay type: functional
[20] = Plasma clearance in iv dosed rat; assay type: ADME, organism-based
Cytochrome P450 3A4 = Cytochrome P450 3A4 (Homo sapiens, UniProt P08684); assay: Inhibition of CYP3A4; assay type: ADME; conditions: TDE = time-dependent effect
Sequence of Cytochrome P450 3A4 (P08684 whole entry): as the sequence (P08684 whole entry) above

[21] = Terminal phase volume of distribution at steady state in iv dosed rat; assay type: ADME, organism-based; conditions: in vivo, read-out: Vbeta
[22] = Solubility in PEG-400; assay type: physicochemical
[23] = Genotoxicity in Salmonella Typhimurium by Ames test; assay type: toxicity; conditions: salmonella enterica subsp. enterica serovar typhimurium

IC50 [2]: 12 nM
Structure (SMILES): O=C(NCc1ccc(C(F)(F)F)nc1N1CCOCC1)Nc1cccc2[nH]ncc12
ED50 (Rattus norvegicus [1]): 33 µmol/kg

IC50 [2]: 125 nM
Structure (SMILES): Cc1ccc(CNC(=O)Nc2cccc3[nH]ncc23)c(N2CCOCC2)n1

IC50 [2]: 8 nM
Structure (SMILES): O=C(NCc1ccc(C(F)(F)F)cc1CCc1ccccc1)Nc1cccc2[nH]ncc12
ED50 (Rattus norvegicus [1]): 30 µmol/kg

IC50 [2]: 9 nM
Structure (SMILES): O=C(NCc1ccc(C(F)(F)F)cc1Oc1ccccc1)Nc1cccc2[nH]ncc12
ED50 (Rattus norvegicus [1]): 22 µmol/kg

IC50 [2]: 3.5 nM
Structure (SMILES): O=C(NCc1ccc(C(F)(F)F)nc1N1CCCCC1)Nc1cccc2[nH]ncc12
ED50 (Rattus norvegicus [1]): 30 µmol/kg

IC50 [2]: 16 nM
Structure (SMILES): Cc1ccc(CNC(=O)Nc2cccc3[nH]ncc23)c(N2CCCCC2)n1
ED50 (Rattus norvegicus [1]): 53 µmol/kg

IC50 [2]: 5 nM
Structure (SMILES): CC(C)(C)CCc1nc(C(F)(F)F)ccc1CNC(=O)Nc1cccc2[nH]ncc12
ED50 (Rattus norvegicus [1]): 100 µmol/kg

IC50 [2]: 8 nM
Structure (SMILES): COCCCc1cc(C(F)(F)F)ccc1CNC(=O)Nc1cccc2[nH]ncc12

Kp [3]: 0.02
IC50 [2]: 6 nM
Structure (SMILES): CC(C)(C)COc1nc(C(F)(F)F)ccc1CNC(=O)Nc1cccc2[nH]ncc12
ED50 (Rattus norvegicus [1]): > 100 µmol/kg

IC50 [4]: 53 nM
Structure (SMILES): CCn1ncc2c(NC(=O)NCc3ccc(C(F)(F)F)cc3CCC(C)(C)C)cccc21

IC50 [4]: 69 nM
Structure (SMILES): CC(C)n1ncc2c(NC(=O)NCc3ccc(C(F)(F)F)cc3CCC(C)(C)C)cccc21

half-life [6]: 3.1 h
inhibition at 10 µM (CYP3A4): 10%
clearance (Rattus norvegicus [8]): 13.3 mL/min/kg
IC50 [4]: 7 nM
Kp [3]: 0.32
IC50 [9]: 277 nM
IC50 [10]: 15 nM
Cmax [11]: 140 ng/mL
solubility [12]: < 0.01 µg/mL
bioavailability [13]: 58%
Vdss (Rattus norvegicus [14]): 3.4 L/kg
solubility [16]: > 67 µg/mL
Structure (SMILES): Cn1ncc2c(NC(=O)NCc3ccc(C(F)(F)F)cc3CCC(C)(C)C)cccc21
ED50 (Rattus norvegicus [5]): 25 µmol/kg
T (Rattus norvegicus [7]): 0.9 °C
Activity (Rattus norvegicus [15]): 67%
Activity (Rattus norvegicus [17]): 45%
Activity (Rattus norvegicus [18]): 20%
ED50 (Rattus norvegicus [19]): 66 µmol/kg

IC50 [2]: 184 nM
Structure (SMILES): O=C(NCc1ccc(C(F)(F)F)nc1)Nc1cccc2[nH]ncc12
ED50 (Rattus norvegicus [1]): 81 µmol/kg

IC50 [2]: 9 nM
Structure (SMILES): O=C(NCc1ccc(C(F)(F)F)nc1Oc1ccccc1)Nc1cccc2[nH]ncc12
ED50 (Rattus norvegicus [1]): 30 µmol/kg

IC50 [2]: 18 nM
Structure (SMILES): COCCOc1nc(C(F)(F)F)ccc1CNC(=O)Nc1cccc2[nH]ncc12

IC50 [2]: 12 nM
Structure (SMILES): COCCCc1nc(C(F)(F)F)ccc1CNC(=O)Nc1cccc2[nH]ncc12
ED50 (Rattus norvegicus [1]): > 30 µmol/kg

IC50 [2]: 9 nM
Structure (SMILES): CC(C)c1cc(C(F)(F)F)ccc1CNC(=O)Nc1cccc2[nH]ncc12
ED50 (Rattus norvegicus [1]): 14 µmol/kg

IC50 [2]: 6 nM
Structure (SMILES): CC(C)(F)CCc1cc(C(F)(F)F)ccc1CNC(=O)Nc1cccc2[nH]ncc12
ED50 (Rattus norvegicus [1]): 58 µmol/kg

half-life [6]: 4.3 h
clearance [20]: 20 mL/min/kg
inhibition (INH) (Cytochrome P450 3A4): tde
inhibition at 10 µM (CYP3A4): 86%
Vd [21]: 5.4 L/kg
Kp [3]: 0.45
solubility [22]: > 100 µg/mL
solubility [12]: 0.42 µg/mL (≈ 1 µM)
bioavailability [13]: 35%
IC50 [2]: 4.3 nM
Structure (SMILES): CC(C)(C)CCc1cc(C(F)(F)F)ccc1CNC(=O)Nc1cccc2[nH]ncc12
ED50 (Rattus norvegicus [5]): 7 µmol/kg
Activity [23]: Non-toxic
ED50 (Rattus norvegicus [1]): 15 µmol/kg
ED50 (Rattus norvegicus [19]): 71 µmol/kg

IC50 [2]: 14 nM
Structure (SMILES): O=C(NCc1ccc(-c2ccccc2)nc1N1CCCCC1)Nc1cccc2[nH]ncc12
ED50 (Rattus norvegicus [1]): 37 µmol/kg

Kp [3]: 0.32
Structure (SMILES): CC(C)(C)c1ccc2c(c1)CC[C@H]2NC(=O)Nc1cccc2[nH]ncc12 [ABT-102]
